Experiment [1] deals with T cells. The experiment can be described thus: Th2 differentiation (IL-4 production by differentiated mouse spleen T cells, ELISA). The format is cell-based. To be noted: inhibition of Th2 differentiation (IL-4 production, ELISA), C57BL/6 mouse spleen T cells. On the procedure:
Measurement of Th2 Differentiation
T cells were prepared by removing nylon wool (Wako Pure Chemical Industries)-adhering cells from C57BL/6 mouse (Charles River Japan) spleen cells. Using a 96 well plate to which an anti-CD3ε antibody (10 μg/ml) (Sederlane) had been immobilized in advance, T cells (2×10^5 cells/0.2 ml) were inoculated under stimulation with anti-CD28 antibody (1 μg/ml) (Pharmingen), IL-2 (10 ng/ml) (Peprotech) and IL-4 (10 ng/ml) (Peprotech). After 2 days of the culturing, total volume of the cell suspension was diluted to 2 ml with a medium containing IL-2 (10 ng/ml) and IL-4 (10 ng/ml). The differentiation was induced by further carrying out the culturing for 3 days. By counting the cell density, the cells after differentiation were adjusted to 1×10^6 cells/ml and inoculated into a 96 well plate immobilized with the anti-CD3 ε antibody, in order to induce IL-4 production. The supernatant after 24 hours of the stimulation was recovered, and the IL-4 production was determined by an ELISA method. The antibody used in the ELISA was purchased from Pharmingen. Also, an HRPO-labeled streptoavidin (Amersham Pharmacia) was used in the detection of biotinylated antibody, and a peroxidase color developing reagent (Sumitomo Bakelite) was used in the HRPO color development. In the case of the evaluation of compounds, compound dilutions were added to the wells before the addition of T cells, at the time of the dilution 2 days later, compounds equivalent to the initial concentration were added. Also, regarding the dilution of compounds, dilution was carried out using 10% FBS-containing RPMI 1640 such that the final concentration of DMSO in which each compound was dissolved became 0.1% or less. Inhibitory activity of each tested compound was evaluated in which the IL-4 production when DMSO was added instead of the compound was regarded as 100%, and the IL-4 production when anti-CD28 antibody and IL-4 were not added as 0%.
A general note: An ELISA detects its analyte on a solid surface through an enzyme-linked reagent.

For experiment [2], the target named is T1, STAT 6 (Mus musculus, UniProt P52633).
T1 construct: An STAT 6 reporter cell CI/FW4 was constructed by the above operation; endogenous in cells; host or cells: CI/FW4 (FW4 cell stably carrying the pGL2-CI/bs luciferase reporter)
T1 sequence (P52633 1-837): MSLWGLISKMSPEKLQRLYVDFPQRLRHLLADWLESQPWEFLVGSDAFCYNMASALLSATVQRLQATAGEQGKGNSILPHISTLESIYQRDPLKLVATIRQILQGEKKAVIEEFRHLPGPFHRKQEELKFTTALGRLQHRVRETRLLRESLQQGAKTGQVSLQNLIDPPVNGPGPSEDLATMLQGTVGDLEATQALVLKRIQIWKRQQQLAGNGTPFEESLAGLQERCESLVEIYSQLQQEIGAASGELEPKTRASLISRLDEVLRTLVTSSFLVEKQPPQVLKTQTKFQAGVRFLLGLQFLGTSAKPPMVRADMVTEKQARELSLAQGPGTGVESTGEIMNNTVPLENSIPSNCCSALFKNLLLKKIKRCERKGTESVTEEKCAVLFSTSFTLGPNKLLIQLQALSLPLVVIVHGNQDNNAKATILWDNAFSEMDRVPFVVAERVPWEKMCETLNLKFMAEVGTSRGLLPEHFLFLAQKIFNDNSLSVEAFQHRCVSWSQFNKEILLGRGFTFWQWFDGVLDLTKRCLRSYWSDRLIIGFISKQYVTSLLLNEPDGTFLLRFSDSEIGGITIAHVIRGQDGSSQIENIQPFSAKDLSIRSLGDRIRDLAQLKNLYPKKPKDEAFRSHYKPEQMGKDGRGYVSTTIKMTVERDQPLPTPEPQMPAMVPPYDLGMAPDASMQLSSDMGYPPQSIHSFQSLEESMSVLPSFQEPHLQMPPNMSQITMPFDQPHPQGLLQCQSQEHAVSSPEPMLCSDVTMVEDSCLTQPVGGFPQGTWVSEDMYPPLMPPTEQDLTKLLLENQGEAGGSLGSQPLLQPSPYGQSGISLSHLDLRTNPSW
The experiment can be described thus: STAT 6-dependent reporter activity (IL-4-stimulated CI/FW4 luciferase reporter cell). The format is cell-based, human. On the procedure: Measurement of STAT 6-Dependent Reporter Activity 1) Construction of STAT 6 Reactive Reporter Plasmid A STAT 6 reporter plasmid pGL2-CI was prepared by the following method. […] Also, […] sequence DNA molecules (SEQ ID NOs:3 and 4) contained in the adenovirus major late promoter were annealed and inserted into BglII and HindIII sites of the same vector. Thereafter, pGL2-CI/bs was constructed by inserting the blasticidin resistance gene of pUCSV-BD (Funakoshi) into BamHI site of the constructed pGL2-CI. 2) Construction of STAT 6 Reporter Cell Gene transfer of […] into a human IL-4 reactive cell FW4 cell (Mol. Cell. Biol., 14: 5433-5440) was carried out by the electroporation method (320 V, 960 μF/0.4 cm cuvette (Nippon Bio-Rad Laboratories)), and 6 μg/ml of blasticidin (Funakoshi) was added 40 hours thereafter to select a resistant cell. Confirmation of constant transfer of the reporter plasmid was carried out by detecting luciferase induce by IL-4 stimulation. An STAT 6 reporter cell CI/FW4 was constructed by the above operation. 3) STAT Reporter Assay Using CI/FW4 Cell Stimulation of the CI/FW4 cell (1×10^4 cells/0.1 ml) with 10 ng/ml of human IL-4 (Genzyme Techne) was carried out using a white 96 well plate (Nunc). In the case of the evaluation of compounds, compound dilutions were added to the wells before inoculating the cells into the 96 well plate. […] Thereafter, 50 μl of a luciferase substrate solution (10 mM Tris-HCl pH 7.8, 5 mM luciferin, 2 mM coenzyme A, 2 mM ATP, 0.5 mM MgCl2 and 2 mM Mg(OH)2) was added, followed by stirring for 1 minute. Then, the luciferase activity was measured using ML3000 luminometer (Dynatech Laboratories, Inc). Inhibitory activities of tested compounds were evaluated in which the luminescence intensity (relative light unit: […] The results are shown in the following Table 26.
Background: Reporter assays use an easily measured gene product as a stand-in for the process of interest.

For the compound `NC(=O)c1cnc(NCCc2cc(Cl)c(O)c(Cl)c2)nc1NCc1ccccc1` [Example 16], the “Inh (%)” value in experiment [1] is 82%. Further, the “inhibition of STAT 6-dependent reporter activity (activity similar to the compounds of Table 26)” value in experiment [2] (CI/FW4 cell, 10 ng/ml human IL-4, luciferase) was “good activity”.

`Cc1cccc(Nc2nc(NCCN)ncc2C(N)=O)c1` [ref 1, 2-(2-aminoethylamino)-4-(3-methylanilino)pyrimidine-5-carboxamide, reference compound]: in experiment [1], the “Inh (%)” value came to 0%.

Turning to `Cc1cccc(Nc2nc(N[C@@H]3CCCC[C@@H]3N)ncc2C(N)=O)c1` (relative stereo) [ref 2, 2-(cis-2-aminocyclohexylamino)-4-(3-methylanilino)pyrimidine-5-carboxamide, reference compound], in experiment [1], the “Inh (%)” value is listed as 0%.

Broadly, the inhibition is the change of the read-out against control, counted positive when it falls. Take `NC(=O)c1cnc(NCCc2ccc(O)c(Cl)c2)nc1NCc1ccccc1` [Example 1, 4-benzylamino-2-{[2-(3-chloro-4-hydroxyphenyl)ethyl]amino}pyrimidine-5-carboxamide]: in experiment [1], the “Inh (%)” value turned out to be 88%. For the same compound, in experiment [2] (inhibition ratio at 0.1 μM compound, IL-4-stimulated CI/FW4 cell, luciferase), the inhibition at 0.1 µM stood at 89%. Further, the inhibition at 1 µM in experiment [2] (inhibition ratio at 1 μM compound, IL-4-stimulated CI/FW4 cell, luciferase) turned out to be 100%.

The values are drawn from patent US8012959B2, “Diaminopyrimidinecarboxamide derivative” (Astellas Pharma Inc., priority 2002, dated 2011).
